Experimental findings from patent US8569298B2, “Pyridine compounds” (Astrazeneca AB, priority 2008, dated 2013) are described below.

Molecules are shown by their SMILES.

T1 sequence (Q05397 422-680 limits assumed): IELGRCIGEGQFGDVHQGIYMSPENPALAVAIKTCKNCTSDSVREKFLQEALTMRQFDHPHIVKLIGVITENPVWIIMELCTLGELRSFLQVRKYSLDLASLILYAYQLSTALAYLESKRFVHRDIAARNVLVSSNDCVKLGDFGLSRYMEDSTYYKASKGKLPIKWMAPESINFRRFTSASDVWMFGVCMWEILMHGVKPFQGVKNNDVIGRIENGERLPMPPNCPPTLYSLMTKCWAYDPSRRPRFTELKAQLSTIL

This experiment has as its target T1, FAK enzyme (6 His tagged kinase domain, GenBank NP—722560) (Homo sapiens, UniProt Q05397).
T1 construct: 6 His; made in house; host or cells: insect cell culture infected with baculovirus
As to the kind of experiment: In vitro enzyme assay (a): sandwich ELISA of FAK tyrosine kinase activity on polyGAT peptide, TMB colorimetric endpoint. Type of experiment: biochemical. Particulars: in vitro Enzyme Assay test (a); ATP at Km; geometric mean of n > 1 measurements, values marked * tested once. A digest of the protocol: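 Recombinant His-tagged FAK kinase domain (baculovirus/insect cells) phosphorylated plate-coated polyGAT with ATP at Km, MgCl2/MnCl2, HEPES pH 7.4, 25 min at room temperature before EDTA stop. Phosphotyrosine detected by HRP-4G10 antibody and TMB absorbance at 450 nm; IC50 from 12-point curve anchored to DMSO and staurosporine controls.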
In general terms: In an ELISA, binding on a coated surface is turned into a signal by an enzyme label.
As for `CNC(=O)c1c(Nc2cc(Nc3c(C)nn(C)c3C)ncc2C(F)(F)F)cccc1OC` [Example 15.04, 2-Methoxy-N-methyl-6-[[5-(trifluoromethyl)-2-[(1,3,5-trimethylpyrazol-4-yl)amino]-4-pyridyl]amino]benzamide], 24 nM corresponded to half-maximal inhibition (IC50).
To `CN1CCC(n2cc(Nc3cc(Nc4cccc5c4C(=O)N(C)CC5)c(F)cn3)cn2)CC1` [Example 4.16, 8[[5-fluoro-2-[[1-(1-methyl-4-piperidyl)pyrazol-4-yl]amino]-4-pyridyl]amino]-2-methyl-3,4-dihydroisoquinolin-1-one] belongs 465 nM.
Under `COc1cc(Nc2cc(Nc3cccc4c3C(=O)N(C)CC4)c(C#N)cn2)n(C)n1` [Example 1.06, 6-[(5-methoxy-2-methylpyrazol-3-yl)amino]-4-[(2-methyl-1-oxo-3,4-dihydroisoquinolin-8-yl)amino]pyridine-3-carbonitrile] stands 20 nM.
To `CN1CCc2cccc(Nc3cc(Nc4cnn([C@@H]5CCC(=O)NC5)c4)ncc3F)c2C1=O` [Example 4.13, 8-[[5-fluoro-2-[[1-[(3R)-6-oxopiperidin-3-yl]pyrazol-4-yl]amino]pyridin-4-yl]amino]-2-methyl-3,4-dihydroisoquinolin-1-one] belongs 1030 nM; to `CNC(=O)c1cc(C)ccc1Nc1cc(Nc2cn(C)nc2C)ncc1C(F)(F)F` [Example 10.03, 2-[[2-[(1,3-dimethylpyrazol-4-yl)amino]-5-(trifluoromethyl)-4-pyridyl]amino]-N,5-dimethyl-benzamide], 2 nM; to `CNC(=O)c1ccccc1Nc1cc(Nc2cnn(CC(=O)N(C)C3CCN(C)CC3)c2)ncc1F` [Example 4.02, 2-[[5-fluoro-2-[[1-[2-[methyl-(1-methyl-4-piperidyl)amino]-2-oxo-ethyl]pyrazol-4-yl]amino]-4-pyridyl]amino]-N-methyl-benzamide], 1320 nM.
Turning to `CNC(=O)c1nn(C)cc1Nc1cc(Nc2cccc3c2C(=O)N(C)CC3)c(Cl)cn1` [Example 12.01, 4-[[5-chloro-4-[(2-methyl-1-oxo-3,4-dihydroisoquinolin-8-yl)amino]-2-pyridyl]amino]-N,1-dimethyl-pyrazole-3-carboxamide], half-maximal inhibition (IC50) was put at 915 nM. The IC50 values of the last two molecules are within 1.5-fold of each other.
